Entries after “also recorded” stand apart in the source; their conditions may differ.
What was measured:
[1] = tested on: full-thickness excision wounds on the dorsum of Yucatan minipigs; test: Yucatan minipig full-thickness excision wound model, histologic evaluation (H&E, Mason's Trichrome); assay type: in vivo; settings: for Fibroplasia; dermis, Average Scores / Neovascularization; dermis, Average Scores: minipig wound sites after two doses, Day 59 post wound, average of individual scores, scale 1 minimal to 5 severe
Description: Porcine skin resembles human skin in many aspects. Both species have a relatively thick epidermis, distinct rete pegs, dermal papillae, and dense elastic fibers in the dermis. Furthermore, unlike rodents and rabbits, porcine skin is adherent to the subcutaneous structures, similar to human skin. Because of these anatomical similarities and other parallelisms in wound healing, porcine models have emerged as important foundations for the study of pathophysiology and potential treatment paradigms for abnormal wound healing. It has also been observed in porcine full-thickness wound healing in Yucatan Minipigs that the spatial and temporal expressions of TGF-β1, PDGF and VEGF were similar to the patterns for the growth factors described above. Therefore, the full-thickness excision models in Yucatan minipigs are the models for human wound healing studies.
(§1) In this experiment, multiple full-thickness excision wounds were made to the dorsum of Yucatan minipigs, and the wound sites were allowed to re-epithelialized adequately. At four weeks post-wound, the wound sites had normal to pink vascularity and had pliability. Epidermal hyperplasia was observed, as expected for regenerative responses in the full-thickness wounds.
(§2) On Day 28 post-wound, a dose (e.g., 1%) of axitinib, nintedanib, riociguat, sorafenib, sunitinib, and/or lenvatinib was administered into the dermal tissue at or around the wound sites, once every two weeks on two occasions. One wound site was left untreated as the control for each pig. Please note that the particular parameters in this example are only for illustration. One skilled in the art would appreciate that the dosages, administration methods, treatment regimen, and the administration sites may be varied to achieve similar results.
On Day 59 post wound, the minipigs were sacrificed and dermal tissues were collected for qualitative and quantitative evaluation using hematoxylin and eosin, and Mason's Trichrome staining. Dermal fibroplasia was characterized by increased numbers of fibroblasts in the dermis suspended in variable amounts of collagen in wounds.

[2] = tested on: rabbit ear hypertrophic scar; test: Rabbit ear hypertrophic scar model, histologic evaluation (H&E, Mason's Trichrome); assay type: in vivo, New Zealand White rabbits; settings: intradermal, Day 42 post wound, compared with untreated and vehicle-treated wound; for fibrosis of treated wound, in words / neovascularization of treated wound, in words: once every two weeks on two occasions
Description: In rabbits, wounds are created down to the bare cartilage on the ventral surface of the ear using a dermal biopsy punch. […] By both appearance and histological analysis, these scars resemble human hypertrophic scars. In this established model, it was shown that reduced TGF-β expression results in reduced scarring, which is consistent with the current understanding of the pathogenesis of excessive scarring/dermal fibrosis. […] Thus, this rabbit model was also used to assess the compounds of the invention.
(§3) Eight wounds were created on the ventral surface of the ears of each of New Zealand White rabbits using skin punch biopsies, and then the wounds were allowed to heal for approximately 2 weeks.
(§4) A dose (e.g., 1%) of axitinib, nintedanib, riociguat, sorafenib, sunitinib, and/or lenvatinib was administered into the dermal tissue, once every two weeks on two occasions. Again, the specific doses, treatment methods and schedules are for illustration only. One skilled in the art would appreciate that variations and modifications are possible to achieve similar results.
(§5) On Day 42 post wound, the rabbits were sacrificed and dermal tissues were collected for qualitative and quantitative evaluation using hematoxylin and eosin and Mason's Trichrome staining. In addition, TGF-β1 mRNA expression levels were measured using qRT-PCR.
Histologic slides for hematoxylin and eosin stainings were prepared from the wound sites. Tissues were evaluated qualitatively for inflammation, neovascularization, granulation tissue, degrees of re-epithelialization, and degrees of scarring (avascular collagen).

TGF-β1 mRNA [3] = test: TGF-β1 mRNA expression by qRT-PCR in rabbit ear wound sites; assay type: in vivo, New Zealand White rabbits; settings: for Rabbit TGFB1 mRNA Expression Fold by Treatment Relative to Untreated Wounded (mean ± SD): rabbit ear wound sites, Treated (each drug), N 5 or 6, intradermal; for mean TGFb1 mRNA level after intradermal treatment, in words: rabbit ear, compared with the vehicle-treated wound
Description: as §3, §4, §5

TGF-β1 mRNA [4] = test: TGF-β1 mRNA expression by qRT-PCR in Yucatan pig skin wound sites; assay type: in vivo, Yucatan minipigs; settings: minipig; compared to unwounded normal skin
Description: as §1, §2
In addition, total mRNA was isolated from skin biopsies of the treated wound sites and the untreated unwounded sites of the pigs. The mRNA samples were used to prepare cDNA and analyzed via qRT-PCR. The TGF-β1 expression levels were assessed using beta actin as a reference gene.

[5] = minipig, two biweekly treatments, histopathology relative to the untreated wound

Structure (SMILES) | Fibroplasia; dermis, Average Scores [1] | Neovascularization; dermis, Average Scores [1] | re-epithelialization of treated wound, in words [2] | fibrosis of treated wound, in words [2] | neovascularization of treated wound, in words [2] | Rabbit TGFB1 mRNA Expression Fold by Treatment Relative to Untreated Wounded (mean ± SD) (TGF-β1 mRNA [3]) | mean TGFb1 mRNA level after intradermal treatment, in words (TGF-β1 mRNA [3]) | dermal fibroplasia / fibrosis at treated wound, in words [1, 5] | neovascularization at treated wound, in words [1, 5] | TGF-β1 mRNA expression level at treated wounds, in words (TGF-β1 mRNA [4]) | scar tissues of treated wound, in words [2]
COc1cc2nccc(Oc3ccc(NC(=O)NC4CC4)c(Cl)c3)c2cc1C(N)=O [lenvatinib] | (3.00) | (2.33) | similar | similar | similar | 0.66 ± 0.25 Fold | lower |  |  |  | 
CNC(=O)c1ccccc1Sc1ccc2c(/C=C/c3ccccn3)n[nH]c2c1 [axitinib] | (2.33) | (1.67) |  |  |  | 0.87 ± 0.28 Fold |  |  |  |  | 
COC(=O)c1ccc2c(c1)NC(=O)/C2=C(\Nc1ccc(N(C)C(=O)CN2CCN(C)CC2)cc1)c1ccccc1 [nintedanib] | (2.33) | (1.67) |  | decreased | decreased; also recorded: much less | 0.73 ± 0.13 Fold | lower | reduced | noticeably reduced | most effective | less
CCN(CC)CCNC(=O)c1c(C)[nH]c(/C=C2\C(=O)Nc3ccc(F)cc32)c1C [sunitinib] | (2.67) | (2.33) |  |  |  | 0.76 ± 0.23 Fold |  |  |  |  | 
COC(=O)N(C)c1c(N)nc(-c2nn(Cc3ccccc3F)c3ncccc23)nc1N [riociguat] | (2.67) | (2.67) |  | slightly decreased | slightly decreased | 1.14 ± 0.14 Fold |  |  |  | most effective | 
CNC(=O)c1cc(Oc2ccc(NC(=O)Nc3ccc(Cl)c(C(F)(F)F)c3)cc2)ccn1 [sorafenib] | (3.00) | (2.33) |  |  | slightly increased | 0.87 ± 0.13 Fold | lower |  |  | most effective | 

Reference: patent US20200330446A1, “COMPOSITIONS AND METHODS OF TREATING SKIN FIBROTIC DISORDERS” (AIVIVA BIOPHARMA, INC., priority 2015, published 2020)
